Here are results for one compound from patent US7041652B1, “Ascorbate-isoquercetin compositions” (Merck Patent GmbH, priority 1999, dated 2006).

For data set [1] the following is noted: earlier pharmacokinetic studies (Hollman and Katan, 1997; Hollman, 1997); cited from earlier work.
A short description of data set [2]: intestinal absorption of isoquercetin. The class given is in vivo. Particulars: human intestinal tract; compared with rutin and quercetin aglycone. The source says:
Therefore, the increased effectivity of ascorbate protectioin may be caused by the fact that isoquercetin contains a glucose molecule. This glucose molecule seems to be the reason why isoquercetin is able to use the sodium-dependent glucose transport pathway of the intestinal brush-border membrane in its absorption process (Gee et al., 1998).

Entries after “also recorded” stand apart in the source; their conditions may differ.

Take `O=c1c(O[C@@H]2O[C@H](CO)[C@@H](O)[C@H](O)[C@H]2O)c(-c2ccc(O)c(O)c2)oc2cc(O)cc(O)c12` [isoquercetin, quercetin-3-O-glucoside]: the “absorption rate and bioavailability” value in data set [1] was “excellent absorption rate and bioavailability; also recorded: absorbed better than rutin and quercetin”. For the same compound, the absorption entry in data set [2] was “better than that of pure aglycone; also recorded: far better absorption rates in human intestinal tract than rutin or the quercetin aglycone”.
